# Calls of active or inactive are those of the source. The calls are words filed in the database; no cut-off is given here.
# Legend:
# [1] = (§1) Inhibition of Human immunodeficiency virus 1 3B gp120 expressed in african green monkey COS cells assessed as inhibition of […] between gp120 and CD4 expressed on human TZM-bl cells by ELISA; assay type: cell-based
# [2] = system: Human immunodeficiency virus 1; test: Competitive inhibition of Human immunodeficiency virus 1 3B gp120 V3 loop assessed as blockade of 447-52D antibody binding by ELISA
# [3] = system: COS; test: as §1; assay type: cell-based
# [4] = system: Human immunodeficiency virus 1; test: Antiviral activity against Human immunodeficiency virus 1 Clade C ZM109F.PB4 infected in human TZM-bl cells after 2 days by luciferase reporter gene analysis; assay type: functional, organism-based; details: Human immunodeficiency virus 1, Clade C ZM109F.PB4, TZM-bl, 48 h
# [5] = system: Human immunodeficiency virus 1; test: Antiviral activity against Human immunodeficiency virus 1 Clade C Du151.2 infected in human TZM-bl cells after 2 days by luciferase reporter gene analysis; assay type: functional, organism-based; details: Human immunodeficiency virus 1, Clade C Du151.2, TZM-bl, 48 h
# [6] = system: Human immunodeficiency virus 1; test: Antiviral activity against Human immunodeficiency virus 1 Clade B SS1196.1 infected in human TZM-bl cells after 2 days by luciferase reporter gene analysis; assay type: functional, organism-based; details: Human immunodeficiency virus 1, Clade B SS1196.1, TZM-bl, 48 h
# [7] = system: Human immunodeficiency virus 1; test: Antiviral activity against Human immunodeficiency virus 1 Clade C ZM197M.PB7 infected in human TZM-bl cells after 2 days by luciferase reporter gene analysis; assay type: functional, organism-based; details: Human immunodeficiency virus 1, Clade C ZM197M.PB7, TZM-bl, 48 h
# [8] = system: Human immunodeficiency virus 1; test: Competitive inhibition of Human immunodeficiency virus 1 3B gp120 glycan loop assessed as blockade of 2G12 antibody binding by ELISA
# [9] = system: Human immunodeficiency virus 1; test: Antiviral activity against Human immunodeficiency virus 1 Clade B WITO4160.33 infected in human TZM-bl cells after 2 days by luciferase reporter gene analysis; assay type: functional, organism-based; details: Human immunodeficiency virus 1, Clade B WITO4160.33, TZM-bl, 48 h
# [10] = system: Human immunodeficiency virus 1; test: Antiviral activity against Human immunodeficiency virus 1 DH012; assay type: functional, organism-based
# [11] = system: Human immunodeficiency virus 1; test: Antiviral activity against Human immunodeficiency virus 1 3B infected in human TZM-bl cells assessed as inhibition of viral replication at 0.33 uM by luminometric analysis; assay type: functional, organism-based; details: TDE = time-dependent effect
# [12] = system: Human immunodeficiency virus 1; test: Antiviral activity against Human immunodeficiency virus 1 Clade B 5768.4 infected in human TZM-bl cells after 2 days by luciferase reporter gene analysis; assay type: functional, organism-based; details: Human immunodeficiency virus 1, Clade B 5768.4, TZM-bl, 48 h
# [13] = system: Human immunodeficiency virus 1; test: Competitive inhibition of Human immunodeficiency virus 1 3B gp120 V3 loop assessed as blockade of PK70 antibody binding by ELISA
# [14] = system: Human immunodeficiency virus 1; test: Antiviral activity against Human immunodeficiency virus 1 Clade C Du123.6 infected in human TZM-bl cells after 2 days by luciferase reporter gene analysis; assay type: functional, organism-based; details: Human immunodeficiency virus 1, Clade C Du123.6, TZM-bl, 48 h
# [15] = system: Human immunodeficiency virus 1; test: Antiviral activity against Human immunodeficiency virus 1 Clade B NL4.3 infected in human TZM-bl cells after 2 days by luciferase reporter gene analysis; assay type: functional, organism-based; details: Human immunodeficiency virus 1, Clade B NL4.3, TZM-bl, 48 h
# [16] = system: Human immunodeficiency virus 1; test: Antiviral activity against Human immunodeficiency virus 1 Clade B 7165.18 infected in human TZM-bl cells after 2 days by luciferase reporter gene analysis; assay type: functional, organism-based; details: Human immunodeficiency virus 1, Clade B 7165.18, TZM-bl, 48 h
# [17] = system: Human immunodeficiency virus 1; test: Antiviral activity against Human immunodeficiency virus 1 YU-2; assay type: functional; details: isolate YU2
# [18] = system: Human immunodeficiency virus 1; test: Antiviral activity against Human immunodeficiency virus 1 Clade C Du422.1 infected in human TZM-bl cells after 2 days by luciferase reporter gene analysis; assay type: functional, organism-based; details: Human immunodeficiency virus 1, Clade C Du422.1, TZM-bl, 48 h
# [19] = system: Human immunodeficiency virus 1; test: Antiviral activity against Human immunodeficiency virus 1 Clade B REJO4541.67 infected in human TZM-bl cells after 2 days by luciferase reporter gene analysis; assay type: functional, organism-based; details: Human immunodeficiency virus 1, Clade B REJO4541.67, TZM-bl, 48 h
# [20] = system: Human immunodeficiency virus 1; test: Antiviral activity against BMS-378806-resistant Human immunodeficiency virus 1 YU-2 T/P; assay type: functional; details: Human immunodeficiency virus type 1 (isolate YU2)
# [21] = system: Human immunodeficiency virus 1; test: Antiviral activity against Human immunodeficiency virus 1 Clade B RHPA4259.7 infected in human TZM-bl cells after 2 days by luciferase reporter gene analysis; assay type: functional, organism-based; details: Human immunodeficiency virus 1, Clade B RHPA4259.7, TZM-bl, 48 h
# [22] = system: Human immunodeficiency virus 1; test: Competitive inhibition of Human immunodeficiency virus 1 3B gp120 V3 loop assessed as blockade of 39F antibody binding by ELISA
# [23] = system: Human immunodeficiency virus 1; test: Antiviral activity against Human immunodeficiency virus 1 3B infected in human TZM-bl cells assessed as inhibition of viral replication at 1 uM by luminometric analysis; assay type: functional, organism-based; details: TDE = time-dependent effect
# [24] = system: Human immunodeficiency virus 1; test: Antiviral activity against BMS-378806-resistant Human immunodeficiency virus 1 DH012 T/P; assay type: functional, organism-based
structure (smiles),measurement,setting,value
CCCCOc1c2cc(C(=O)Nc3cc(C(=O)O)cc(C(=O)OCc4ccccc4)c3)cc1Cc1cc(C(=O)Nc3cc(C(=O)O)cc(C(=O)OCc4ccccc4)c3)cc(c1OCCCC)Cc1cc(C(=O)Nc3cc(C(=O)O)cc(C(=O)OCc4ccccc4)c3)cc(c1OCCCC)Cc1cc(C(=O)Nc3cc(C(=O)O)cc(C(=O)OCc4ccccc4)c3)cc(c1OCCCC)C2,EC50,[1],> 70000 nM
same,inhibition,[2],inactive
CCCCOc1c2cc(C(=O)Nc3cc(C(=O)O)cc(C(=O)O)c3)cc1Cc1cc(C(=O)Nc3cc(C(=O)O)cc(C(=O)O)c3)cc(c1OCCCC)Cc1cc(C(=O)Nc3cc(C(=O)O)cc(C(=O)O)c3)cc(c1OCCCC)Cc1cc(C(=O)Nc3cc(C(=O)O)cc(C(=O)O)c3)cc(c1OCCCC)C2,inhibition,[3],Dose-dependent effect
same,IC50,[4],3900 nM
same,IC50,[5],3100 nM
same,IC50,[6],2800 nM
same,IC50,[7],2700 nM
same,inhibition,[8],inactive
same,IC50,[9],1800 nM
same,Activity,[10],Active
same,Activity,[11],tde
same,IC50,[12],4100 nM
same,inhibition,[2],Dose-dependent effect
same,inhibition,[13],Active
same,IC50,[14],1400 nM
same,IC50,[15],650 nM
same,IC50,[16],4500 nM
same,Activity,[17],Active
same,IC50,[18],1800 nM
same,IC50,[19],1900 nM
same,Activity,[20],Active
same,IC50,[21],3100 nM
same,inhibition,[22],Active
same,Activity,[23],tde
same,Activity,[24],Active

# — ChEMBL document CHEMBL2021873, “Blocking HIV-1 entry by a gp120 surface binding inhibitor” (Bioorg Med Chem Lett, 2012)
